Assay results as given in ChEMBL document CHEMBL4411291, “Synthesis and anti-tumor activity of imidazopyrazines as TAK1 inhibitors” (Eur J Med Chem, 2019).
The source made the active and inactive calls. No cut-off for these calls is given here.

Experiments:
[1] = biological target: T1, Mitogen-activated protein kinase kinase kinase 7 (Homo sapiens) (UniProt O43318); experiment: Inhibition of TAK1 (unknown origin) at 0.1 uM by LanthaScreen Eu kinase binding assay relative to control
T1 sequence (whole entry): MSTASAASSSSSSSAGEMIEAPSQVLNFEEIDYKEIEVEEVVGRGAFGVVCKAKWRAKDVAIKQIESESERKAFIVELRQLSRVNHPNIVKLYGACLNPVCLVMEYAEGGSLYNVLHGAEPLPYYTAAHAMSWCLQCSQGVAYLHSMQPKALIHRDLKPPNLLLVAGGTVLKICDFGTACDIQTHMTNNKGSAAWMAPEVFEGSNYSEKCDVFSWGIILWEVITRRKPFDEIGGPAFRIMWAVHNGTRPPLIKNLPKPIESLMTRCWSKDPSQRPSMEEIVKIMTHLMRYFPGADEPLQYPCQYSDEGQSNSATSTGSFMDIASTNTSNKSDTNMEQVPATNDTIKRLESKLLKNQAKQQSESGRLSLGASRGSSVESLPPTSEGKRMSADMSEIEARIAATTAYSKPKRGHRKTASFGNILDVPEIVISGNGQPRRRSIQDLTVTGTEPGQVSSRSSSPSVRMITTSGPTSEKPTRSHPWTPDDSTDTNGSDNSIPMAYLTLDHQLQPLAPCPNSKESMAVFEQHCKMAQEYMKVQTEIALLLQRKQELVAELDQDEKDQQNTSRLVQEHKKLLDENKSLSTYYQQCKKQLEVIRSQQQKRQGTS

[2] = biological target: T1, Mitogen-activated protein kinase kinase kinase 7 (Homo sapiens); experiment: Inhibition of TAK1 (unknown origin) at 1 uM by LanthaScreen Eu kinase binding assay relative to control
SW-620 [3] = experiment: Induction of apoptosis in human SW620 cells assessed as Caspase-3 activity at 10 uM after 24 hrs by Caspase-3/7 reagent-based fluorescence assay; assay type: functional, cell-based
[4] = AUC (0 to 7 hrs) in ICR mouse at 8.2 mg/kg, po administered as single dose or 3 mg/kg, iv by LC-MS/MS analysis; assay type: ADME, organism-based; conditions: in vivo
SW-620 [5] = experiment: Antitumor activity against human SW620 cells xenografted in CAnN.Cg-Foxnlnu/Crljbgi nude mouse assessed as tumor growth inhibition at 100 mg/kg, po dosed daily for 14 consecutive days; assay type: functional, organism-based
TAK1/TAB1 = TAK1/TAB1 (Homo sapiens, UniProt O43318); experiment: Inhibition of N-terminal His-tagged human TAK1 (1 to 303 amino acids)/human TAB1 (437 to 504 amino acids) expressed in baculovirus expression system using fluorescence-labeled substrate by off-chip mobility shift assay
Sequence of TAK1/TAB1 (Q15750 whole entry, one chain of several, the tested form may be a part): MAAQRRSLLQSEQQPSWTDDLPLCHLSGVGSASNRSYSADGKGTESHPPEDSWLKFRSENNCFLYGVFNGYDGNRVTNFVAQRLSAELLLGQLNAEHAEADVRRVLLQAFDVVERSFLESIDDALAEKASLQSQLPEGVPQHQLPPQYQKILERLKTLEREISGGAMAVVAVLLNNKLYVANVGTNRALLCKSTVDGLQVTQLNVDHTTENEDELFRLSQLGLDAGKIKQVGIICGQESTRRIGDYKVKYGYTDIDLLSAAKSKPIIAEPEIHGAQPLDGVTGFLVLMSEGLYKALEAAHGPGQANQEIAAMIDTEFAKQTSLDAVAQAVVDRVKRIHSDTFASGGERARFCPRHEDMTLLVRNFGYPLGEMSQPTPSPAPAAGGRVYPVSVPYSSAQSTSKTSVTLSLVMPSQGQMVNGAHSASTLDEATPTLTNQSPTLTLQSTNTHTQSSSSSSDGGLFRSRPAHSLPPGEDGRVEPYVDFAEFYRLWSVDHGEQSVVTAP

[6] = biological target: Platelet-derived growth factor receptor alpha (Homo sapiens) (UniProt P16234); experiment: Inhibition of PDGFRalpha (unknown origin) at 1 uM by LanthaScreen Eu kinase binding assay relative to control
[7] = biological target: Serine/threonine-protein kinase B-raf (Homo sapiens) (UniProt P15056); experiment: Inhibition of BRAF (unknown origin) at 1 uM by LanthaScreen Eu kinase binding assay relative to control
[8] = biological target: Inhibitor of nuclear factor kappa-B kinase subunit beta (Homo sapiens) (UniProt O14920); experiment: Inhibition of IKKbeta (unknown origin) at 1 uM by LanthaScreen Eu kinase binding assay relative to control
[9] = Oral bioavailability in ICR mouse at 8.2 mg/kg administered as single dose by LC-MS/MS analysis; assay type: ADME, organism-based; conditions: in vivo
[10] = biological target: Ribosomal protein S6 kinase alpha-1 (Homo sapiens) (UniProt Q15418); experiment: Inhibition of RPS6KA1 (unknown origin) at 1 uM by LanthaScreen Eu kinase binding assay relative to control
Cytochrome P450 3A4 = Cytochrome P450 3A4 (Homo sapiens, UniProt P08684); experiment: Inhibition of CYP3A4 in liver microsomes (unknown origin) using ketoconazole as […] preincubated for 5 mins followed by NADPH addition and measured after 15 mins by LC-MS/MS analysis; assay type: ADME
Sequence of Cytochrome P450 3A4 (P08684 whole entry): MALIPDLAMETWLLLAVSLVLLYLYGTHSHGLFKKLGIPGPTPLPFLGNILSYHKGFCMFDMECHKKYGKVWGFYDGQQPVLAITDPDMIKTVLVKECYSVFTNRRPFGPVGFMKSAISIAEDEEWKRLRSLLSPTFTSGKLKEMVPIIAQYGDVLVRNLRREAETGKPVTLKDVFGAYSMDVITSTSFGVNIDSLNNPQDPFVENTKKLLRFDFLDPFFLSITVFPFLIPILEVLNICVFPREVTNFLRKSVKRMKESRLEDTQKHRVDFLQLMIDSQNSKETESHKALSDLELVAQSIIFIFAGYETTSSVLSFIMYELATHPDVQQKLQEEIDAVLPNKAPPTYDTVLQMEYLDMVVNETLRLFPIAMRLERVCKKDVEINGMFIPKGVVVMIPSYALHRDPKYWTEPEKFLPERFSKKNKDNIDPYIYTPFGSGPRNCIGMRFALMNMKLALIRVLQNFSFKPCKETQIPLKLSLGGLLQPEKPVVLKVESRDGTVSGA

SK-CO-1 = experiment: Growth inhibition of human SKCO1 cells after 96 hrs by SRB assay; assay type: functional, cell-based; conditions: SK-CO-1, 96 h
[11] = Cmax in ICR mouse at 8.2 mg/kg, po administered as single dose or 3 mg/kg, iv by LC-MS/MS analysis; assay type: ADME, organism-based; conditions: in vivo
[12] = Toxicity in CAnN.Cg-Foxnlnu/Crljbgi nude mouse xenografted with human SW620 cells at 100 mg/kg, po dosed daily for 14 consecutive days; assay type: organism-based; conditions: in vivo
[13] = Toxicity in CAnN.Cg-Foxnlnu/Crljbgi nude mouse xenografted with human SW620 cells assessed as weight loss at 100 mg/kg, po dosed daily for 14 consecutive days; assay type: organism-based; conditions: in vivo
Cytochrome P450 2B6 = Cytochrome P450 2B6 (Homo sapiens, UniProt P20813); experiment: Inhibition of CYP2B6 in liver microsomes (unknown origin) using clopidogrel as […] preincubated for 5 mins followed by NADPH addition and measured after 15 mins by LC-MS/MS analysis; assay type: ADME
Sequence of Cytochrome P450 2B6 (P20813 whole entry): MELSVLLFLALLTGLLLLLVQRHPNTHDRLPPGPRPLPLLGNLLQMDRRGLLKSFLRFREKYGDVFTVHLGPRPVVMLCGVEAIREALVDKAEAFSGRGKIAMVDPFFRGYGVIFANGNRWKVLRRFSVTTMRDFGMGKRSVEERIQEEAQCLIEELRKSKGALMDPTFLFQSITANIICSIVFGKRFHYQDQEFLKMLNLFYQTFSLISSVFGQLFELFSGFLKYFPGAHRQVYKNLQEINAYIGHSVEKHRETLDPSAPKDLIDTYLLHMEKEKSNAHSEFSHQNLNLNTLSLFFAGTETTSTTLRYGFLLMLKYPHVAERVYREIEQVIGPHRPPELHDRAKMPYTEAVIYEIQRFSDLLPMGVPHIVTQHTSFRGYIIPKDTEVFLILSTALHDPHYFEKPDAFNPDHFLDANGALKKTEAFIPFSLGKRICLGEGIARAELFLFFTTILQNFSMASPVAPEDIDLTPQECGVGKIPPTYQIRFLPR

LoVo = experiment: Growth inhibition of human LoVo cells after 96 hrs by SRB assay; assay type: functional, cell-based
[14] = biological target: Epidermal growth factor receptor (Homo sapiens) (UniProt P00533); experiment: Inhibition of EGFR (unknown origin) at 1 uM by LanthaScreen Eu kinase binding assay relative to control
Cytochrome P450 2C9 = Cytochrome P450 2C9 (Homo sapiens, UniProt P11712); experiment: Inhibition of CYP2C9 in liver microsomes (unknown origin) using sulfaphenazole as […] preincubated for 5 mins followed by NADPH addition and measured after 15 mins by LC-MS/MS analysis; assay type: ADME
Sequence of Cytochrome P450 2C9 (P11712 whole entry): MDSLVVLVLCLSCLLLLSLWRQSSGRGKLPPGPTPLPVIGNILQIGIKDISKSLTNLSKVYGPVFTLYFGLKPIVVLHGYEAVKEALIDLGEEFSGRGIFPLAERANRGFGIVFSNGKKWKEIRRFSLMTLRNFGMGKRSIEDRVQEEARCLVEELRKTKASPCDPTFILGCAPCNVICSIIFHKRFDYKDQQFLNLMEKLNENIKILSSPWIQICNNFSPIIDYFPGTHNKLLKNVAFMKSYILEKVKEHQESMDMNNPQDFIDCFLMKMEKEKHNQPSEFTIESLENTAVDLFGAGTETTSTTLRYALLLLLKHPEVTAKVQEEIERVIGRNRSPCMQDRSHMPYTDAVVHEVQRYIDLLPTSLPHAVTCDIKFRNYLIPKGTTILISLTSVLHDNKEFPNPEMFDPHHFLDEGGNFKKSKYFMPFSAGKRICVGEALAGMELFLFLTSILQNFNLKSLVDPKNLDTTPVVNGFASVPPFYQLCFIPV

[15] = Stability in mouse plasma assessed as parent compound remaining after 6 hrs by LC-MS/MS analysis; assay type: ADME, cell-free; conditions: read-out: Stability
[16] = biological target: T1, Mitogen-activated protein kinase kinase kinase 7 (Homo sapiens); experiment: Inhibition of TAK1 phosphorylation in human SW620 cells after 24 hrs by immunoblotting analysis; assay type: cell-based
[17] = biological target: Glycogen synthase kinase-3 beta (Homo sapiens) (UniProt P49841); experiment: Inhibition of GSK3b (unknown origin) at 1 uM by LanthaScreen Eu kinase binding assay relative to control
[18] = Stability in human plasma assessed as parent compound remaining after 6 hrs by LC-MS/MS analysis; assay type: ADME, cell-free; conditions: read-out: Stability
[19] = biological target: High affinity nerve growth factor receptor (Homo sapiens) (UniProt P04629); experiment: Inhibition of NTRK1 (unknown origin) at 1 uM by LanthaScreen Eu kinase binding assay relative to control
Sequence of High affinity nerve growth factor receptor (Homo sapiens) (P04629 33-796 limits assumed): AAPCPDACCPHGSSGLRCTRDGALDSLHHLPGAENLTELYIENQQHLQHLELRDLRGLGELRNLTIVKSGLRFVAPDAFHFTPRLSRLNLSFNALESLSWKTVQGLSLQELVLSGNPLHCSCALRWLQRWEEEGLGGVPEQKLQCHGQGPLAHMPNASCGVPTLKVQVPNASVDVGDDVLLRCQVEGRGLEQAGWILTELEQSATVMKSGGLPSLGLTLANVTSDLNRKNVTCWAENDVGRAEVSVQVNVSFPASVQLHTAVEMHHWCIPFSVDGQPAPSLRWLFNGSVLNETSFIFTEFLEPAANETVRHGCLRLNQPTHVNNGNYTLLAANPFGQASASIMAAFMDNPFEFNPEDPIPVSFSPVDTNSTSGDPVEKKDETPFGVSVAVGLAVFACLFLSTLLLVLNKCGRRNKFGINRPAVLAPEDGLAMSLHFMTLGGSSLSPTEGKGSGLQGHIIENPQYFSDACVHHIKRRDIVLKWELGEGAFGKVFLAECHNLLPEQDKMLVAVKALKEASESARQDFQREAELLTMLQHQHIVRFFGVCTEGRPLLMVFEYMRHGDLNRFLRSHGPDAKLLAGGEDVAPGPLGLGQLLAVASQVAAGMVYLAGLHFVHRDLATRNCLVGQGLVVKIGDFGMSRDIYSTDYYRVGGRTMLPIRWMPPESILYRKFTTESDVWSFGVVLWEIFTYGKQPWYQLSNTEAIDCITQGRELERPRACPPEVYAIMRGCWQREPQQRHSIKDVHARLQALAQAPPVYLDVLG

[20] = biological target: CDK2/Cyclin A2 (Homo sapiens) (UniProt P24941+P20248); experiment: Inhibition of CDK2/cyclin A (unknown origin) at 1 uM by LanthaScreen Eu kinase binding assay relative to control; assay type: protein-complex assay
[21] = biological target: Voltage-gated inwardly rectifying potassium channel KCNH2 (Homo sapiens, UniProt Q12809); experiment: Binding affinity to human ERG by fluorescence polarization assay
Sequence of Voltage-gated inwardly rectifying potassium channel KCNH2 (Q12809 whole entry): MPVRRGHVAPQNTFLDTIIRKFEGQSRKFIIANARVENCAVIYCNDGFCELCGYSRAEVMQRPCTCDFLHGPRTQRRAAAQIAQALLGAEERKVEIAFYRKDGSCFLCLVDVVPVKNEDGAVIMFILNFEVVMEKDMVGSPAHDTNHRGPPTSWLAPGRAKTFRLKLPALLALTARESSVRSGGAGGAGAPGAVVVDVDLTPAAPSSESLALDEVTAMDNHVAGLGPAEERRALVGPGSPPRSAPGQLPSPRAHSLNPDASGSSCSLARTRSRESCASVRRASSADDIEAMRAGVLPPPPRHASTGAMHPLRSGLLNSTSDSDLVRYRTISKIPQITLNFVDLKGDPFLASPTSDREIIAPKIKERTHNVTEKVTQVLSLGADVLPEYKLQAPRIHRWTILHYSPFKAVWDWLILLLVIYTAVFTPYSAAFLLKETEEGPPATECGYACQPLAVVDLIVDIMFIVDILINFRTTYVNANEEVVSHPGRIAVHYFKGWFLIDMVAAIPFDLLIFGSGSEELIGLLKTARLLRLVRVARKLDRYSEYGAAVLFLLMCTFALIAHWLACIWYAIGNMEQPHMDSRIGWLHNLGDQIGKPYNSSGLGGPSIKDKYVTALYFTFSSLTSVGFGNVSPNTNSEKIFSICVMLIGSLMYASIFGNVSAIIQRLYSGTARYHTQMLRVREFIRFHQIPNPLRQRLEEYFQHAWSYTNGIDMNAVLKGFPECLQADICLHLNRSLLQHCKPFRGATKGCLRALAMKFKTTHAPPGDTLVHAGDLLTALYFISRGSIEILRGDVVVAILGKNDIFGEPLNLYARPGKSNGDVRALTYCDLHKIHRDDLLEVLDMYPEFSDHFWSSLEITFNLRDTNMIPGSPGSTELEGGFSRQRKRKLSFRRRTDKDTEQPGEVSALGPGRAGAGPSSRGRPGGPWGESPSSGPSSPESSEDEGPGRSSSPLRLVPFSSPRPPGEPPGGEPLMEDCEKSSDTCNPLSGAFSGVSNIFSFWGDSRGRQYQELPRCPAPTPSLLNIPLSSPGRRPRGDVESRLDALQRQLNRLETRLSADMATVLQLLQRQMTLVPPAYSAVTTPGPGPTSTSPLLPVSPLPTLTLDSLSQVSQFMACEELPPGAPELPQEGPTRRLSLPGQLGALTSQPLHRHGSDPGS

[22] = biological target: Mitogen-activated protein kinase 14 (Homo sapiens) (UniProt Q16539); experiment: Inhibition of […] (unknown origin) at 1 uM by LanthaScreen Eu kinase binding assay relative to control
Sequence of Mitogen-activated protein kinase 14 (Homo sapiens) (Q16539 whole entry): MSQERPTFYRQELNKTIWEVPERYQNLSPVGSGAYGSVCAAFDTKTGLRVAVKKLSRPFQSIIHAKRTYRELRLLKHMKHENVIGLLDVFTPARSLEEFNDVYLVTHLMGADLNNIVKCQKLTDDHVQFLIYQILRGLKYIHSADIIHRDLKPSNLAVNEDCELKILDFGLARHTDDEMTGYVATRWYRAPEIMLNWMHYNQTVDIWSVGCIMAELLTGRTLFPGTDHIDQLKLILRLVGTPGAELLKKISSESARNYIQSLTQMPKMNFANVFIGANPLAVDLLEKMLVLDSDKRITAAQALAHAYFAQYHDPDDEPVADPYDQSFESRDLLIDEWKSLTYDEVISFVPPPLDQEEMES

[23] = Stability in mouse liver microsomes assessed as parent compound remaining after 60 mins in presence of NADPH by HPLC analysis; assay type: ADME, Microsome; conditions: read-out: Stability
Cytochrome P450 2C19 = Cytochrome P450 2C19 (Homo sapiens, UniProt P33261); experiment: Inhibition of CYP2C19 in liver microsomes (unknown origin) using (+/-) N-3-benzylnirvanol as […] preincubated for 5 mins followed by NADPH addition and measured after 15 mins by LC-MS/MS analysis; assay type: ADME
Sequence of Cytochrome P450 2C19 (P33261 whole entry): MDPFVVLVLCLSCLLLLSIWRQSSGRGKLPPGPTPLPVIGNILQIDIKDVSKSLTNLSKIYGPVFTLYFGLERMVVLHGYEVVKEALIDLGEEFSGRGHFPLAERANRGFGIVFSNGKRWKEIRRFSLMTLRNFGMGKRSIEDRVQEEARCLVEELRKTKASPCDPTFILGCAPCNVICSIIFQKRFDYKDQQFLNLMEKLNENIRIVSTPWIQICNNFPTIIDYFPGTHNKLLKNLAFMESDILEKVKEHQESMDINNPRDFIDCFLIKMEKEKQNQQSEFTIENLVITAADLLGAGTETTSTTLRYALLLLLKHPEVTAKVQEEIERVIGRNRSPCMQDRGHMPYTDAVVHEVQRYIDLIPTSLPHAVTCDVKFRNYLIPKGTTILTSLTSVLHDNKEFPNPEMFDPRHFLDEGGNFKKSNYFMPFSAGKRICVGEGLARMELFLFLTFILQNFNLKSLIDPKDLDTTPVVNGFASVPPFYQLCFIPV

[24] = biological target: Tyrosine-protein kinase BTK (Homo sapiens) (UniProt Q06187); experiment: Inhibition of BTK (unknown origin) at 1 uM by LanthaScreen Eu kinase binding assay relative to control
SW-620 [25] = experiment: Growth inhibition of human SW620 cells after 96 hrs by SRB assay; assay type: functional, cell-based; conditions: SW-620, 96 h
Cytochrome P450 1A2 = Cytochrome P450 1A2 (Homo sapiens, UniProt P05177); experiment: Inhibition of CYP1A2 in liver microsomes (unknown origin) using alpha-naphthoflavone as […] preincubated for 5 mins followed by NADPH addition and measured after 15 mins by LC-MS/MS analysis; assay type: ADME
[26] = Half life in ICR mouse at 8.2 mg/kg, po administered as single dose or 3 mg/kg, iv by LC-MS/MS analysis; assay type: ADME, organism-based; conditions: in vivo
[27] = Stability in human liver microsomes assessed as parent compound remaining after 60 mins in presence of NADPH by HPLC analysis; assay type: ADME, Microsome; conditions: read-out: Stability
[28] = Oral bioavailability in ICR mouse at 10 mg/kg administered as single dose by LC-MS/MS analysis; assay type: ADME, organism-based; conditions: in vivo
[29] = Half life in ICR mouse at 10 mg/kg, po administered as single dose or 3 mg/kg, iv by LC-MS/MS analysis; assay type: ADME, organism-based; conditions: in vivo
[30] = Cmax in ICR mouse at 10 mg/kg, po administered as single dose or 3 mg/kg, iv by LC-MS/MS analysis; assay type: ADME, organism-based; conditions: in vivo
[31] = AUC (0 to 7 hrs) in ICR mouse at 10 mg/kg, po administered as single dose or 3 mg/kg, iv by LC-MS/MS analysis; assay type: ADME, organism-based; conditions: in vivo

Compound `Cc1cc(NC(=O)Nc2cc(C(C)(C)C)nn2-c2cccc([N+](=O)[O-])c2)ccc1-c1cnc(NC2CC2)c2ncnn12` has an inhibition [1] of 26% and an inhibition [2] of 90%.
`Cc1cc(C(=O)Nc2cc(C(C)(C)C)nn2-c2ccccc2)ccc1Oc1cnc(NC2CC2)c2nccn12` gave an inhibition [1] of 4% and an inhibition [2] of 3%.
In the case of `Cc1cc(NC(=O)Nc2cc(C(C)(C)C)nn2-c2ccccc2)ccc1-c1cnc(NC2CC2)c2nccn12`, the Activity (SW-620 [3]) is reported as “Active”, the AUC(0-t) [4] is reported as 3140 ng·h/mL and the Activity (SW-620 [5]) is reported as “Active”. The IC50 (TAK1/TAB1) was 37 nM, the inhibition [1] was 56% and the inhibition [6] was 88%. For the same compound, the inhibition [7] was 37%, the inhibition [8] was 0% and the bioavailability [9] was 25.2%. The inhibition [10] was 4%, the IC50 (Cytochrome P450 3A4) was 3520 nM and the IC50 (SK-CO-1) was 274 nM. The Cmax [11] was 1930 ng/mL, the Activity [12] was “Non-Toxic” and the Activity [13] was “Non-Toxic”. It also gave an IC50 (Cytochrome P450 2B6) greater than 25000 nM, an IC50 (LoVo) of 391 nM and an inhibition [14] of 45%. For the same compound, the IC50 (Cytochrome P450 2C9) was 3500 nM, the remaining at 6 h [15] was 88% and the inhibition [16] was “Dose-dependent effect”. It also gave an inhibition [2] of 98%, an inhibition [17] of 51% and a remaining at 6 h [18] of 90%. The inhibition [19] was 82%, the inhibition [20] was 1% and the IC50 [21] was greater than 50000 nM. It also gave an inhibition [22] of 82%, a remaining at 1 h [23] of 44% and an IC50 (Cytochrome P450 2C19) greater than 25000 nM. It also gave an inhibition [24] of 0%, an IC50 (SW-620 [25]) of 330 nM and an IC50 (Cytochrome P450 1A2) greater than 25000 nM. The half-life [26] was 1.6 h and the remaining at 1 h [27] was 37%.
For `Cc1cc(NC(=O)Nc2cc(C(C)(C)C)nn2-c2cccc(Cl)c2)ccc1-c1cnc(NC2CC2)c2ncnn12`, the inhibition [1] was 18% and the inhibition [2] was 74%.
`Cc1cc(NC(=O)Nc2cc(C(C)(C)C)nn2-c2cccc(C#N)c2)ccc1-c1cnc(NC2CC2)c2nccn12` showed an IC50 (TAK1/TAB1) of 41 nM, an inhibition [1] of 49% and a bioavailability [28] of 3.1%. For the same compound, the remaining at 6 h [15] was 88%, the inhibition [2] was 97% and the remaining at 6 h [18] was 100%. The half-life [29] was 2.4 h, the Cmax [30] was 231 ng/mL and the remaining at 1 h [23] was 37%. It also gave an IC50 (SW-620 [25]) of 169 nM, an AUC(0-t) [31] of 360 ng·h/mL and a remaining at 1 h [27] of 33%.
`Cc1cc(NC(=O)Nc2cc(C(C)(C)C)nn2-c2cccc(Cl)c2)ccc1-c1cnc(NC2CC2)c2nccn12` gave an inhibition [1] of 16% and an inhibition [2] of 84%.
For `Cc1cc(NC(=O)Nc2cc(C(C)(C)C)nn2-c2cccc(C#N)c2)ccc1Oc1cnc(NC2CC2)c2nccn12`, the inhibition [1] was 0% and the inhibition [2] was 76%.
For `Cc1ccc(C(=O)Nc2cc(C(C)(C)C)nn2-c2ccccc2)cc1Oc1cnc(NC2CC2)c2nccn12`, the inhibition [1] was 0% and the inhibition [2] was 0%.
For `Cc1cc(NC(=O)Nc2cc(C(C)(C)C)nn2-c2cccnc2)ccc1-c1cnc(NC2CC2)c2nccn12`, the inhibition [1] was 43% and the inhibition [2] was 89%.
